Reference: doi:10.1101/2024.09.13.612887 (2024)

Key:
[1] = system: F. ulcerans ZTP riboswitch ITC construct RNA (aptamer domain) (RNA, riboswitch) UAUCAGUUAUAUGACUGACGGAACGUGGAAUUAACCACAUGAAGUAUAACGAUGACAAUGCCGACCGUCUGGGCG; experiment: ITC; conditions: 150 mM KCl, 10 mM MgCl2
[2] = system: F. ulcerans ZTP riboswitch SPR construct RNA (RNA, riboswitch) UAUCAGUUAUAUGACUGACGGAACGUGGAAUUAACCACAUGAAGUAUAACGAUGACAAUGCCGACCGUCUGGGCGUUCAUUAGCGGUAUUCCGGAAC …; experiment: SPR; conditions: 150 mM KCl, 10 mM MgCl2; 50 mM HEPES-KOH pH 7.4, 0.005% Tween-20, 5% DMSO; apparent, no saturation, exceeds 1:1 Rmax
[3] = system: S. ondontolytica ZTP riboswitch used for crystallography (64-nt) (RNA, riboswitch, 5'-hydroxyl (hammerhead-cleaved, lacks 5'-phosphate)) GGGUCGUGACUGGCGAACAGGUGGGAAACCACCGGGGAGCGACCCUUGCCGCCCGCCUGGGCAA; experiment: X-ray crystallography; conditions: Mg2+, co-crystal structure
[4] = 50 mM HEPES-KOH pH 7.4, up to 3% DMSO, 37 °C
[5] = 50 mM HEPES-KOH pH 7.4, up to 3% DMSO, 37 °C, N.B. (>30 μM or not measurable)

Row | Compound | KD [1, 4] | also measured
1 | CNc1ccc(-n2cnc(C(N)=O)c2N)cn1 | 2.40 ± 0.36 µM | 
2 | COc1ccc(-n2cnc(C(N)=O)c2N)cn1 | 2.45 ± 0.44 µM | 
3 | COc1ccncc1-n1cnc(C(N)=O)c1N |  | KD ([1]; 50 mM HEPES-KOH pH 7.4, 37 °C, table value, text b16 says KD >30 μM): 4.16 ± 0.68 µM
4 | Cc1ncccc1-n1cnc(C(N)=O)c1N |  | KD [1, 5]: > 30 µM
5 | NC(=O)c1cccc(-n2cnc(C(N)=O)c2N)c1 | 3.52 ± 0.60 µM | 
6 | NC(=O)c1cn(-c2ccncc2)cn1 |  | KD [1, 5]: > 30 µM
7 | NC(=O)c1ncn(-c2ccc(-c3cnc[nH]3)cc2)c1N | 1.46 ± 0.21 µM | KD [2]: ~ 900 nM
8 | NC(=O)c1ncn(-c2ccc(-c3ncc[nH]3)nc2)c1N | 3.18 ± 0.44 µM | 
9 | NC(=O)c1ncn(-c2ccc(Cl)nc2)c1N | 2.19 ± 1.4 µM | 
10 | NC(=O)c1ncn(-c2ccc(NCc3ccccc3)nc2)c1N | 13.8 ± 1.5 µM | 
11 | NC(=O)c1ncn(-c2ccc3[nH]ccc3c2)c1N | 3.20 ± 1.3 µM | 
12 | NC(=O)c1ncn(-c2ccc3cc[nH]c3c2)c1N | 4.99 ± 0.64 µM | 
13 | NC(=O)c1ncn(-c2ccc3cccnc3c2)c1N | 1.36 ± 0.17 µM | 
14 | NC(=O)c1ncn(-c2ccc3ncccc3c2)c1N | 1.28 ± 0.26 µM | 
15 | NC(=O)c1ncn(-c2cccc(O)c2)c1N | 2.47 ± 0.37 µM | 
16 | NC(=O)c1ncn(-c2cccc3cccnc23)c1N |  | KD [1, 5]: > 30 µM
17 | NC(=O)c1ncn(-c2ccccc2)c1N | 1.84 ± 0.41 µM | 
18 | NC(=O)c1ncn(-c2cccnc2)c1N |  | binding ([3]; 2.4 Å): yes
19 | NC(=O)c1ncn(-c2cnc3cccnc3c2)c1N | 0.864 ± 0.21 µM | 
20 | NC(=O)c1ncn(-c2cnc3ncccc3c2)c1N | 0.778 ± 0.28 µM | binding ([3]; 2.2 Å, partially refined): yes
21 | NC(=O)c1ncn(-c2cncnc2)c1N | 1.22 ± 0.45 µM | 
22 | NC(=O)c1ncn(Cc2ccccc2)c1N |  | KD [1, 5]: > 30 µM
23 | NC(=O)c1ncn(Cc2ccncc2)c1N | 15.0 ± 7.1 µM | 
24 | NC(=O)c1ncn(Cc2cnccn2)c1N |  | KD [1, 5]: > 30 µM
25 | NC(=O)c1ncn([C@@H]2CCCNC2)c1N |  | KD [1, 5]: > 30 µM
26 | NC(=O)c1ncn([C@H]2CCCNC2)c1N |  | KD [1, 5]: > 30 µM
27 | NC(=O)c1nnn(-c2cccnc2)c1N |  | KD ([1]; 50 mM HEPES-KOH pH 7.4, up to 3% DMSO, 37 °C, text prints 13.7 ± 7.8): 13.5 ± 7.85 µM
